In patent US20050130252A1, “Stabilized susceptibility tests of aerobic pathogens” (Wyeth Holdings Corporation, priority 2003, published 2005):
Values after ≈ are worked out from the molar mass of the structure shown. Read-outs that look alike come from different tables or passages of the source.

What was measured:
Assay in all cases: Broth microdilution MIC
[1] = system: E. coli ATCC 25922; assay type: cell-based, Escherichia coli; settings: for MIC: Escherichia coli, ATCC25922, E. coli ATCC 25922, read-out: Minimal Inhibitory Concentration; for Minimal Inhibitory Concentration: E. coli ATCC 25922
Protocol: (§1) The process for preparing susceptibility test medium are the following steps: • a. Preparing Mueller Hinton Broth II medium by adding 22 grams powdered media to 1.0 liter distilled water; • b. Autoclaving (121° C., 15 psi, 15 minutes) and cooling the medium; • c. Adding Oxyrase® up to about 10% final volume and keeping at 35-37° C. in an incubator for 30 minutes; • d. Adding about 50 μL to each well of a 96 well microtiter plate; • e. Weighing drug and adding broth to drug to bring up to about (standard 128 μg/ml); • f. Adding 50 μL of the drug to the first column of the titer plate; • g. Diluting by two-fold serial diluting across or down the plate. • h. Preparing a Prompt™ inoculum at 10^8 CFU/ml; • i. Diluting inoculum 1:100 in the broth at […] in 9.9 ml (1:100) is 10^6 colony forming units (CFU) forming the adjusted inoculum; • j. Adding 50 μL of the adjusted inoculum to the wells of the microtiter plate; • k. Incubating the plates at 35-37° C. for 18-22 hours; and • l. Reading, with the unaided eye, the MIC.
(§2) The in vitro activities of tigecycline and control antibiotics were determined by the broth microdilution method as recommended by the NCCLS. (National Committee for Clinical Laboratory Standards, 2003. Methods for Dilution Antimicrobial Susceptibility Tests for Bacteria That Grow Aerobically; Approved Standards: M7-A6, Sixth ed, vol. 23., National Committee for Clinical Laboratory Standards Wayne, Pa.) was used for the standard procedures. MBH with 5% lysed horse blood was used for testing S. pneumoniae and Haemophilus Test Medium was used for testing H. influenzae. Oxyrase® (Oxyrase Inc, Mansfield, Ohio) was used according to the manufacturer's instructions by adding 1 ml of Oxyrase® to 50 ml of media. Media age studies were performed by preparing MHB in multiple flasks, then storing the media under various conditions. MICs were usually performed in duplicate on each day of testing. Storage under anaerobic conditions was conducted in an anaerobic chamber (MACS MG 1000, Don Whitley Scientific LTD). The pH of the media was determined by pH meter (Corning 430). A comparison of the in vitro activity of tigecycline by agar and broth dilution methodolgies with and without Oxyrase® against clinical isolates is shown in Table 1.

[2] = system: E. faecalis ATCC 29212; assay type: cell-based, Enterococcus faecalis; settings: for MIC: Enterococcus faecalis, ATCC29212, E. faecalis ATCC 29212, read-out: Minimal Inhibitory Concentration; for Minimal Inhibitory Concentration: E. faecalis ATCC 29212
Protocol: as §1, §2

[3] = system: S. aureus ATCC 29213; assay type: cell-based, Staphylococcus aureus; settings: Staphylococcus aureus, ATCC29213, S. aureus ATCC 29213, read-out: Minimal Inhibitory Concentration
Protocol: as §1, §2

[4] = system: S. aureus ATCC 25923; assay type: cell-based, Staphylococcus aureus; settings: for MIC: Staphylococcus aureus, ATCC25923, S. aureus ATCC 25923, read-out: Minimal Inhibitory Concentration; for Minimal Inhibitory Concentration: S. aureus ATCC 25923
Protocol: as §1, §2

[5] = system: P. aeruginosa ATCC 27853; assay type: cell-based, Pseudomonas aeruginosa; settings: for Minimal Inhibitory Concentration: P. aeruginosa ATCC 27853; for MIC: Pseudomonas aeruginosa, ATCC27853, P. aeruginosa ATCC 27853, read-out: Minimal Inhibitory Concentration
Protocol: as §1, §2

[6] = Mueller Hinton Broth II (Fresh)
[7] = Mueller Hinton Broth II (MHB II)

| Compound | MIC ([1]; MHB II + 0.05% Catalase) [µg/mL] | MIC ([1]; MHB II + 0.05% L-ascorbic Acid) [µg/mL] | MIC ([1]; MHB II + 0.05% L-cysteine) [µg/mL] | MIC ([1]; MHB II + 0.05% Sodium Pyruvate) [µg/mL] | MIC ([1]; MHB II + 0.05% Thioglycolate) [µg/mL] | MIC ([1]; MHB II + 2% Oxyrase) [µg/mL] | MIC [1, 6] [µg/mL] | MIC [1, 7] [µg/mL] | MIC ([2]; MHB II + 0.05% Catalase) [µg/mL] | MIC ([2]; MHB II + 0.05% L-ascorbic Acid) [µg/mL] | MIC ([2]; MHB II + 0.05% L-cysteine) [µg/mL] | MIC ([2]; MHB II + 0.05% Sodium Pyruvate) [µg/mL] | MIC ([2]; MHB II + 0.05% Thioglycolate) [µg/mL] | MIC [2, 6] [µg/mL] | MIC ([3]; MHB II + 0.05% Catalase) [µg/mL] | MIC ([3]; MHB II + 0.05% L-ascorbic Acid) [µg/mL] | MIC ([3]; MHB II + 0.05% L-cysteine) [µg/mL] | MIC ([3]; MHB II + 0.05% Thioglycolate) [µg/mL] | MIC ([3]; MHB II + 2% Oxyrase) [µg/mL] | MIC [3, 6] [µg/mL] | other results |
| --- | --- | --- | --- | --- | --- | --- | --- | --- | --- | --- | --- | --- | --- | --- | --- | --- | --- | --- | --- | --- | --- |
| CN(C)[C@@H]1C(O)=C(C(N)=O)C(=O)[C@@]2(O)C(O)=C3C(=O)c4c(O)cccc4[C@@](C)(O)[C@H]3C[C@@H]12 [Tetracycline] | 4 | > 4 | 4 | 2 | 4 | 1 | 1 to 2 (≈ 2.25 to 4.5 µM) | 1 to 2 (≈ 2.25 to 4.5 µM) | 16 | > 4 | > 4 | 16 | > 16 | > 4 | 1 | 2 | 1 | 1 | 0.5 to 1 | 1 to 2 (≈ 2.25 to 4.5 µM) | MIC [3, 7]: 0.5 to 1 µg/mL (≈ 1.13 to 2.25 µM); MIC ([4]; MHB II + 0.05% Sodium Pyruvate): 1 µg/mL |
| CN(C)CC(=O)Nc1cc(N(C)C)c2c(c1O)C(=O)C1=C(O)C3(O)C(=O)C(C(N)=O)=C(O)C(N(C)C)C3CC1C2 (stereo not shown) [DMG-MINO, N,N-dimethylglycylamido 9-aminominocycline] |  |  |  |  |  |  |  |  |  |  |  |  |  |  |  |  |  |  |  |  | Minimal Inhibitory Concentration ([1]; 2% Oxyrase): 0.06 µg/mL; Minimal Inhibitory Concentration ([1]; No Oxyrase): 0.25 µg/mL; Minimal Inhibitory Concentration ([2]; 2% Oxyrase): 0.03 µg/mL; Minimal Inhibitory Concentration ([2]; No Oxyrase): 0.25 µg/mL; Minimal Inhibitory Concentration ([4]; 2% Oxyrase): 0.12 µg/mL; Minimal Inhibitory Concentration ([4]; No Oxyrase): 0.50 µg/mL; Minimal Inhibitory Concentration ([5]; 2% Oxyrase): 16 µg/mL; Minimal Inhibitory Concentration ([5]; No Oxyrase): 16 µg/mL |
| CN(C)CC(=O)Nc1ccc2c(c1O)C(=O)C1=C(O)C3(O)C(=O)C(C(N)=O)=C(O)C(N(C)C)C3CC1C2 (stereo not shown) [DMG-DMDOT, N,N-dimethylglycylamido 9 amino-6-demethyl-6-deoxytetracycline] |  |  |  |  |  |  |  |  |  |  |  |  |  |  |  |  |  |  |  |  | Minimal Inhibitory Concentration ([1]; 2% Oxyrase): 0.12 µg/mL; Minimal Inhibitory Concentration ([1]; No Oxyrase): 0.12 µg/mL; Minimal Inhibitory Concentration ([2]; 2% Oxyrase): 0.06 µg/mL; Minimal Inhibitory Concentration ([2]; No Oxyrase): 0.06 µg/mL; Minimal Inhibitory Concentration ([4]; 2% Oxyrase): 0.12 µg/mL; Minimal Inhibitory Concentration ([4]; No Oxyrase): 0.25 µg/mL; Minimal Inhibitory Concentration ([5]; 2% Oxyrase): 8 µg/mL; Minimal Inhibitory Concentration ([5]; No Oxyrase): 16 µg/mL |
| CN(C)c1ccc(O)c2c1C[C@H]1C[C@H]3[C@H](N(C)C)C(O)=C(C(N)=O)C(=O)[C@@]3(O)C(O)=C1C2=O [Minocycline] | 1 | 4 | 2 | 0.5 | 1 | 0.5 | 0.5 to 1 (≈ 1.09 to 2.19 µM) | 0.5 to 1 (≈ 1.09 to 2.19 µM) | 4 | 4 | 4 | 2 | 8 | 4 (≈ 8.74 µM) | 0.5 | 1 | 0.25 | 0.25 | 0.12 to 0.25 | 0.12 to 0.5 (≈ 0.262 to 1.09 µM) | MIC ([1]; 2% Oxyrase): 0.5 µg/mL (≈ 1.09 µM); MIC ([1]; No Oxyrase): 1 µg/mL (≈ 2.19 µM); MIC ([2]; 2% Oxyrase): 2 µg/mL (≈ 4.37 µM); MIC ([2]; MHB II + 2% Oxyrase): 2 to 4 µg/mL; MIC [2, 7]: 4 to 8 µg/mL (≈ 8.74 to 17.5 µM); MIC ([2]; No Oxyrase): 4 µg/mL (≈ 8.74 µM); MIC [3, 7]: 0.25 to 0.5 µg/mL (≈ 0.546 to 1.09 µM); MIC ([4]; 2% Oxyrase): 0.12 µg/mL (≈ 0.262 µM); MIC ([4]; MHB II + 0.05% Sodium Pyruvate): 0.25 µg/mL; MIC ([4]; No Oxyrase): 0.25 µg/mL (≈ 0.546 µM); MIC ([5]; 2% Oxyrase): 16 µg/mL (≈ 35 µM); MIC ([5]; No Oxyrase): > 16 µg/mL |
